Test results taken from patent US20250011368A1, “DLL3 TARGETING PEPTIDES AND CONSTRUCTS THEREOF” (MARIANA ONCOLOGY INC., priority 2023, published 2025).
Bridge positions count the residues as written; N and C are the ends. Square brackets hold non-standard residues; d marks the D form. Peptide text beside a SMILES is read from it. * marks the point of attachment. DOTA = O=C(O)CN1CCN(CC(=O)O)CCN(CC(=O)*)CCN(CC(=O)O)CC1; Phe(4-CF3) = N[C@@H](Cc1ccc(C(F)(F)F)cc1)C(=O)O; Trp(5-F) = N[C@@H](Cc1c[nH]c2ccc(F)cc12)C(=O)O; Trp(7-aza) = N[C@@H](Cc1c[nH]c2ncccc12)C(=O)O; Pro(trans-4-F) = O=C(O)[C@@H]1C[C@@H](F)CN1; 2Nal = N[C@@H](Cc1ccc2ccccc2c1)C(=O)O; Nva(3-Et) = CCC(CC)[C@H](N)C(=O)O; 4Pal = N[C@@H](Cc1ccncc1)C(=O)O

What was measured:
[1] = tested on: CT26.DLL3 cells; experiment: Cell binding (total uptake) of [177Lu]Lu-test peptide, CT26.DLL3 cells; assay type: cell-based; details: 1 hour at 37° C.
Protocol: (§1) [^177Lu]LuCl3 was received from venders in HCl solution. For every mCi of [^177Lu]LuCl3 added to the reaction vial (1.5 mL Eppendorf vial), ammonium acetate buffer (0.2 M, pH 4.9, 100 μL, containing 1% w/v ascorbic acid and 6% v/v ethanol) and peptide conjugate (1 nmol). A peptide conjugate of the present disclosure is also referred to herein as a “chelator-peptide”. The pH of the solution was determined to be approximately 5 by using pH strips. The reaction vial was incubated at 80° C., 700 RPM for 17-20 minutes. A sample from the reaction was analyzed by RP-HPLC using an Agilent Infinity II 1260 HPLC to determine reaction completion and radiochemical purity of [^177Lu]Lu-chelator-peptide. HPLC conditions: Waters XBridge BEH C18 Column, 130 Å, 3.5 um, 4.6 mm×250 mm; mobile phase: Solvent A=water (with 0.1% formic acid), solvent B=acetonitrile (with 0.1% formic acid). Gradients: 25-45% B in 10 minutes, 45-65% B in 12 minutes, 65-90% in 6 minutes at a flow rate of 0.5 mL/minute. Required amounts of the product was formulated in 1% PBSA for cell studies.
(§2) The study was conducted using SHP-77, CT26.WT, and CT26.DLL3 cells (Table 7) Adherent cell studies: The cells were cultured in appropriate culture media (20 mL) in tissue culture treated T150 flasks at 37° C. and 5% CO2. Adherent cells were detached (60-70% confluent) using 5 mL Versene at 37° C. for 3 minutes. After confirming the viability using countess and count of detached cells using Trypan blue, the cells were centrifuged at 4° C. for 5 minutes (1,000 rpm). The cell pellet obtained was washed once with PBS and resuspended in 1% PBSA to obtain the desired cell concentration (5-25 million cells/mL).
(§3) Cell numbers used for the assay were in the range of 5 million cells/condition −25 million cells/condition.
(§4) Total uptake: Cells were incubated with 300 μL (0.8 μCi) of the incubation buffer (containing radiolabeled peptide [^177Lu] Lu-test peptide) for 1 hour at 37° C. (Table 8). Post incubation, the cells were pelleted and washed 2 times using cold PBS+1% BSA. The supernatant and washes were combined and counted together as “unbound fraction” in a gamma counter. The cells were then resuspended in 300 μL of 1% PBS+1% BSA and counted in the gamma counter as “bound fraction”.
(§5) In these Tables, “A” represents %≤25; “B” represents 25<%≤50; “C” represents %>50.

[2] = molecular target: T1, human DLL3 (Homo sapiens, UniProt Q9NYJ7); experiment: Affinity determination by Surface Plasmon Resonance (SPR); assay type: binding; details: 25° C., biotinylated human DLL3 immobilized on streptavidin sensor chip, 1:1 binding model; read-out: SPR KD
T1 sequence (Q9NYJ7 27-618): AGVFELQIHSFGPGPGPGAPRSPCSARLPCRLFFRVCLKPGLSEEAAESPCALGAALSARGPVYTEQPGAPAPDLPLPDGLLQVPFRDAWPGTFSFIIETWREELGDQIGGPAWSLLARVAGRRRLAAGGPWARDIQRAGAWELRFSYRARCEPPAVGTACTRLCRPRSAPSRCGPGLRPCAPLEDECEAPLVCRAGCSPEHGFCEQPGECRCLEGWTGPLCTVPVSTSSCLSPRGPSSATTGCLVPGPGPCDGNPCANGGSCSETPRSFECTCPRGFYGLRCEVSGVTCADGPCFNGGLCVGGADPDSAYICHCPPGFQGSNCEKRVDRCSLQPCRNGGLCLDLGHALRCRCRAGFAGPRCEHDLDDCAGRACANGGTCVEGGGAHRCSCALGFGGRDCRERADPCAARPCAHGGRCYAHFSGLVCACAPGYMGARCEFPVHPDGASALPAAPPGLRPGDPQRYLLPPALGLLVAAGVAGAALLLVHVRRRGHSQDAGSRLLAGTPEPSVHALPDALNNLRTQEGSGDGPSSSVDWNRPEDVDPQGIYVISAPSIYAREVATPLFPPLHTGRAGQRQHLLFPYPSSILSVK
How it was run: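 Kinetic and affinity constants were derived by fitting sensorgrams to a 1:1 binding model. Graded compound concentrations flowed at 100 μL/minute in 20 mM phosphate running buffer with 2% DMSO over streptavidin-immobilized biotinylated human DLL3, reference-subtracted.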

[3] = tested on: SHP-77 tumors; experiment: Ex vivo biodistribution of radiolabeled peptides in nude mice bearing SHP-77 tumors; details: [177Lu]Lu labelling, nude mice bearing SHP-77 tumors (n = 3), 24 hours post-injection
How it was run: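 Nude mice bearing SHP-77 xenografts (200-400 mm^3) or tumor-naïve mice (5-7 weeks) received an intravenous tail-vein bolus of [^177Lu]Lu-peptide and were euthanized at pre-set time points. Tissues were weighed and gamma-counted, with counts decay-corrected to injection time. Values are % IA/g per tissue from the injected activity of each mouse.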

[4] = tested on: SHP-77 cells; experiment: Cell binding (total uptake) of [177Lu]Lu-test peptide, SHP-77 cells; assay type: cell-based; details: SHP77 cells, 1 hour at 37° C., bound fraction
Protocol: as §1, §2
Suspension cell studies: The cells were cultured in appropriate culture media (20 mL) in tissue culture treated T150 flasks at 37° C. and 5% CO2. After confirming the viability and count of detached cells using Trypan blue, the cells were centrifuged at 4° C. for 5 minutes (1,000 rpm). The cell pellet obtained was washed once with PBS and resuspended in 1% PBSA to obtain the desired cell concentration (5-25 million cells/mL).
as §3, §4, §5

[5] = tested on: CT26.DLL3 cells; experiment: Internalization (out of bound fraction) of [177Lu]Lu-test peptide, CT26.DLL3 cells; assay type: cell-based; details: 1 hour at 37° C., glycine pH 2.5 wash
Protocol: as §1, §2, §3, §4
Internalization: The resuspended cells in 300 μl of 1% PBSA and counted in the gamma counter as “bound fraction” were collected in 1.5 mL Eppendorf tube and pelleted. The pelleted cells were incubated with 300 μl of 50 mM Glycine pH=2.5 for 3 minutes and then pelleted discarding the supernatant. This process was repeated one more time. The pelleted cells were washed with 300 μl of cold 1% PBSA and then resuspended in 300 μl 0.3M NaOH. This was counted in the gamma counter as “internalized fraction”.
as §5

[6] = molecular target: T2, Biotinylated human DLL3 (Delta Like Canonical Notch Ligand 3) (human, UniProt Q9NYJ7 27-492, limits assumed, biotinylated (site not stated)); experiment: SPR; letter grade, key in paragraph 614
T2 construct: also called Delta-like protein 3; biotinylated target ligand human DLL3
T2 sequence: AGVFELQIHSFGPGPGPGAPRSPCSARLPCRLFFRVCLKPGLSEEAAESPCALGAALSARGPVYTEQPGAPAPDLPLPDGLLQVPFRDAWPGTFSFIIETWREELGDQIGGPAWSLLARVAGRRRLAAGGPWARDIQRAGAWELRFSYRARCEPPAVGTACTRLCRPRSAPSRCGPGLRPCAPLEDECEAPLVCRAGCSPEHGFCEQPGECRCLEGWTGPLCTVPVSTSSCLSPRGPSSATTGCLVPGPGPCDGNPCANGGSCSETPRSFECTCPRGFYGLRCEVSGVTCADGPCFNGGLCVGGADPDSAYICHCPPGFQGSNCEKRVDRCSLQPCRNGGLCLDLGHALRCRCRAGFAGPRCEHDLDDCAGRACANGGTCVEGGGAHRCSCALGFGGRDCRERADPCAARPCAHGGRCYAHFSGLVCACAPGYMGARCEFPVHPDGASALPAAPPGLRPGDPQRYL
Protocol: Biotinylated target ligand human DLL3 was immobilized on a streptavidin sensor chip. A reference surface was set up for nonspecific binding and refractive index changes. For analysis of the kinetics of interactions, varying concentrations of samples were injected at a flow rate of 100 μL/minute using running buffer containing 20 mM phosphate buffer with 2.7 mM KCl, 137 mM NaCl, 0.05% Surfactant P20 and 2% DMSO. Sensorgram curves were fitted with 1:1 binding model, and affinity and kinetic parameters were obtained using Biacore Insight evaluation 4.0. software.

CC[C@H](C)[C@H](NC(=O)[C@@H](NC(=O)[C@H](Cc1c[nH]c2ccccc12)NC(C)=O)[C@@H](C)O)C(=O)N[C@H]1CSSC[C@@H](C(=O)N[C@@H](Cc2c[nH]c3ccccc23)C(=O)N2CCC[C@H]2C(=O)N[C@H](CCCCNC(=O)CN2CCN(CC(=O)O)CCN(CC(=O)O)CCN(CC(=O)O)CC2)C(N)=O)NC(=O)[C@H](CC(=O)O)NC(=O)[C@H](Cc2cnc[nH]2)NC(=O)[C@H](Cc2c[nH]c3ccccc23)NC(=O)[C@H](CC(N)=O)NC(=O)[C@H](CC(N)=O)NC1=O [compound 23, Ac-W-T-I-C(3)-N-N-W-H-D-C(3)-W-P-[D-Lys(DOTA)]-NH2] (Ac-WTICNNWHDCWP[dK](DOTA)-NH2; disulfide 4-10)
% Binding [1]: A (%≤25)
Kd [2]: 1 to 10 nM
kidney uptake (% IA/g) [3]: D (% IA/g > 10 in kidney)
tumor uptake (% IA/g) [3]: A (0 < % IA/g ≤ 5 in tumor)
% Binding [4]: A (%≤25)

CC[C@H](C)[C@H](NC(=O)[C@@H](NC(=O)[C@H](Cc1c[nH]c2ccccc12)NC(C)=O)[C@@H](C)O)C(=O)N[C@H]1CSSC[C@@H](C(=O)N[C@@H](Cc2c[nH]c3ccccc23)C(=O)N2CCC[C@H]2C(=O)N[C@H](CCCCNC(=O)CN2CCN(CC(=O)O)CCN(CC(=O)O)CCN(CC(=O)O)CC2)C(N)=O)NC(=O)[C@H](CC(=O)O)NC(=O)[C@H](Cc2cnc[nH]2)NC(=O)[C@H](Cc2ccc3ccccc3c2)NC(=O)[C@H](CC(N)=O)NC(=O)[C@H](CC(N)=O)NC1=O [compound 75, Ac-W-T-I-C(3)-N-N-(2Nal)-H-D-C(3)-W-P-[D-Lys(DOTA)]-NH2] (Ac-WTICNN[2Nal]HDCWP[dK](DOTA)-NH2; disulfide 4-10)
% Binding [1]: B (25<%≤50)
Kd [2]: 1 to 10 nM
% Internalization (out of bound fraction) [5]: B (25<%≤50)
kidney uptake (% IA/g) [3]: D (% IA/g > 10 in kidney)
tumor uptake (% IA/g) [3]: A (0 < % IA/g ≤ 5 in tumor)
% Binding [4]: A (%≤25)

CCC(CC)[C@H](NC(=O)[C@@H](NC(=O)[C@H](Cc1c[nH]c2ccc(F)cc12)NC(C)=O)[C@@H](C)O)C(=O)N[C@H]1CSSC[C@@H](C(=O)N[C@@H](Cc2c[nH]c3ncccc23)C(=O)N2C[C@H](F)C[C@H]2C(=O)N[C@H](CCCCNC(=O)CN2CCN(CC(=O)O)CCN(CC(=O)O)CCN(CC(=O)O)CC2)C(N)=O)NC(=O)[C@H](CC(=O)O)NC(=O)[C@H](Cc2cnc[nH]2)NC(=O)[C@H](Cc2ccc(C(F)(F)F)cc2)NC(=O)[C@H](CC(N)=O)NC(=O)[C@H](CC(N)=O)NC1=O [compound 146, Ac-(5Fluoro-W)-T-(Env)-C(3)-N-N-(4CF3-F)-H-D-C(3)-(7Aza-W)-(trans4Fluoro-P)-[D-Lys(DOTA)]-NH2] (Ac-[Trp(5-F)]T[Nva(3-Et)]CNN[Phe(4-CF3)]HDC[Trp(7-aza)][Pro(trans-4-F)][dK](DOTA)-NH2; disulfide 4-10)
Kd [2]: < 1 nM
kidney uptake (% IA/g) [3]: C (0 < % IA/g ≤ 10 in kidney)
tumor uptake (% IA/g) [3]: A (0 < % IA/g ≤ 5 in tumor)
% Binding [4]: A (%≤25)

B1: Cpd No. 252 (peptide)
peptide: Ac-WTICNN[2Nal]HDCWP[dK]-NH2
modifications: disulfide 4-10; not fully specified (residue 13); printed as Ac-W-T-I-C(3)-N-N-(2Nal)-H-D-C(3)-W-P-{D-Lys[PEG8-D-Lys(DOTA)-PEG12-COCH2Ph-4Br]}-NH2, disulfide C(3)-C(3)
Kd [6]: ≤ 1 nM

B2: Cpd No. 367 (peptide)
peptide: Ac-WTICNN[2Nal][4Pal]DCWP[dK](DOTA)-NH2
modifications: disulfide 4-10
SMILES: CC[C@H](C)[C@H](NC(=O)[C@@H](NC(=O)[C@H](Cc1c[nH]c2ccccc12)NC(C)=O)[C@@H](C)O)C(=O)N[C@H]1CSSC[C@@H](C(=O)N[C@@H](Cc2c[nH]c3ccccc23)C(=O)N2CCC[C@H]2C(=O)N[C@H](CCCCNC(=O)CN2CCN(CC(=O)O)CCN(CC(=O)O)CCN(CC(=O)O)CC2)C(N)=O)NC(=O)[C@H](CC(=O)O)NC(=O)[C@H](Cc2ccncc2)NC(=O)[C@H](Cc2ccc3ccccc3c2)NC(=O)[C@H](CC(N)=O)NC(=O)[C@H](CC(N)=O)NC1=O
Kd [6]: ≤ 1 nM

Ac-WTICNN[2Nal][4Pal]DCWP[dK](DOTA)-NH2 (disulfide 4-10; also: natLu in the DOTA chelator, * = [natLu]Lu-labelled peptide) [[natLu]Lu-labelled Cpd No. 367]
Kd [6]: ≤ 1 nM
